# According to patent US7217722B2 (Kirin Beer Kabushiki Kaisha, priority 2000, dated 2007):
# Target: Rho kinase (fused protein of bovine Rho kinase catalyst region and glutathione S-transferase) (Bos taurus, UniProt Q28021)
# Assay: Rho kinase inhibitory activity (phosphorylation of S6 231–239 substrate, γ32P-ATP)
# Type: biochemical
# Details: concentration inhibiting substrate phosphorylation by 50%
# Description: This permits the substrate to be labeled with the radioisotope.
# Thereafter, the substrate was adsorbed to a filter paper. ATP was washed away with a phosphoric acid solution, and the amount of the phosphorylated substrate was then measured with a liquid scintillation counter.
# Rho kinase (fused protein of bovine Rho kinase catalyst region and glutathione S-transferase), sequence (Q28021 92-354 limits assumed): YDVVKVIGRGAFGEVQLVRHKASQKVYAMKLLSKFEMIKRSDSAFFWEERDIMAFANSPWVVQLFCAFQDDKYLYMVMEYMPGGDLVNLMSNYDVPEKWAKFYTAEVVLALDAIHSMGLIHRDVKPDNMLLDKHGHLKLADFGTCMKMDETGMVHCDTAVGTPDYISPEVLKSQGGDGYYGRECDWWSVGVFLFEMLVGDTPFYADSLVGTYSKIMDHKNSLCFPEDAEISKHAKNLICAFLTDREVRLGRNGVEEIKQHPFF
row,SMILES,IC50 [nM]
1,"O=C(NCc1c(F)cc(F)cc1F)Nc1ccncc1 [Example 77, N-(4-Pyridyl)-N′-(2,4,6-trifluorobenzyl)urea]",4070
2,"O=C(COc1c(Br)cc(F)cc1Br)Nc1ccncc1 [Example 2, N1-(4-Pyridyl)-2-(2,6-dibromo-4-fluorophenoxy)acetamide]",2210
3,"O=C(Cc1ccc([N+](=O)[O-])cc1)Nc1ccc2[nH]ncc2c1 [Example 49, N1-(1H-5-Indazolyl)-2-(4-nitrophenyl)acetamide]",513
4,"O=C(CNc1ccc(O)cc1)Nc1ccc2[nH]ncc2c1 [Example 50, N1-(1H-5-Indazolyl)-2-(4-hydroxyanilino)acetamide]",326
5,"Brc1ccc(CN2CCCC(Nc3ccc4[nH]ncc4c3)C2)cc1 (stereo not shown) [Example 165, N-[1-(4-Bromobenzyl)-3-piperidyl]-N-(1H-5-indazolyl)amine]",11
6,"O=C(NCc1c(F)cc(F)cc1F)Nc1ccc2[nH]ncc2c1 [Example 103, N-(1H-5-Indazolyl)-N′-(2,4,6-trifluorobenzyl)urea]",260
7,"c1ccc(CCN2CCC(Nc3ccc4[nH]ncc4c3)CC2)cc1 [Example 130, N-(1H-5-Indazolyl)-N-(1-phenethyl-4-piperidyl)amine]",457
8,"O=C(NCc1ccccc1Cl)Nc1ccc2c(c1)C(=O)NC2=O [Example 82, N-(2-Chlorobenzyl)-N′-(1,3-dioxo-2,3-dihydro-1H-5-isoindolyl)urea]",290
9,"O=C(Nc1ccncc1)Nc1c(F)cccc1F [Example 8, N-(2,6-Difluorophenyl)-N′-(4-pyridyl)urea]",2000
10,"COc1cc(CNC(=O)Nc2ccc3[nH]ncc3c2)ccc1O [Example 113, N-(4-Hydroxy-3-methoxybenzyl)-N′-(1H-5-indazolyl)urea]",492
11,"O=C(NCc1c(F)cccc1F)Nc1ccncc1 [Example 61, N-(2,6-Difluorobenzyl)-N′-(4-pyridyl)urea]",6950
12,"O=[N+]([O-])c1cccc(CN2CCC(Nc3ccc4[nH]ncc4c3)CC2)c1 [Example 140, N-(1H-5-Indazolyl)-N-[1-(3-nitrobenzyl)-4-piperidyl]amine]",465
13,"CCc1ccccc1CN1CCC(Nc2ccc3[nH]ncc3c2)CC1 [Example 121, N-[1-(2-Ethylbenzyl)-4-piperidyl]-N-(1H-5-indazolyl)amine]",513
14,"O=C(COc1c(Cl)cc(F)cc1Cl)Nc1ccncc1 [Example 24, N1-(4-Pyridyl)-2-(2,6-dichloro-4-fluorophenoxy)acetamide]",480
15,"O=C(NCc1c(F)c(F)c(F)c(F)c1F)Nc1ccncc1 [Example 97, N-(2,3,4,5,6-Pentafluorobenzyl)-N′-(4-pyridyl)urea]",2100
16,"Clc1ccccc1CN1CCCC(Nc2ccc3[nH]ncc3c2)C1 (stereo not shown) [Example 161, N-[1-(2-Chlorobenzyl)-3-piperidyl]-N-(1H-5-indazolyl)amine]",13
17,"O=C(NCc1c(F)cccc1C(F)(F)F)Nc1ccncc1 [Example 64, N-[2-Fluoro-6-(trifluoromethyl)benzyl]-N′-(4-pyridyl)urea]",2190
18,"O=C(Nc1ccncc1)Nc1c(Cl)cccc1Cl [Example 9, N-(2,6-Dichlorophenyl)-N′-(4-pyridyl)urea]",850
19,"O=C(Nc1ccncc1)NC1CCCCC1 [Example 19, N-Cyclohexyl-N′-(4-pyridyl)urea]",7260
20,"O=C(CCc1ccc2c(c1)OCO2)Nc1ccc2[nH]ncc2c1 [Example 52, N1-(1H-5-Indazolyl)-3-(1,3-benzodioxol-5-yl)propaneamide]",230

row,SMILES,IC50 [nM]
1,O=C(Nc1ccncc1)Nc1c(F)cc(F)cc1Br [Example 57],1110
2,"CC(=O)Oc1ccc(CN2CCC(Nc3ccc4[nH]ncc4c3)CC2)cc1 [Example 149, 4-{[4-(1H-5-Indazolylamino)piperidino]methyl}phenyl acetate]",204
3,"O=C(NCc1c(F)c(F)c(F)c(F)c1F)Nc1ccc2c(c1)C(=O)NC2=O [Example 98, N-(1,3-Dioxo-2,3-dihydro-1H-5-isoindolyl)-N′-(2,3,4,5,6-pentafluorobenzyl)urea]",410
4,"O=C(NCc1ccccc1[N+](=O)[O-])Nc1ccncc1 [Example 93, N-(2-Nitrobenzyl)-N′-(4-pyridyl)urea]",12500
5,"COc1ccc(/C=C/C(=O)Nc2ccc3[nH]ncc3c2)cc1O [Example 41, N1-(1H-5-Indazolyl)-(E)-3-(3-hydroxy-4-methoxyphenyl)-2-propeneamide]",224
6,"CC(=O)n1ncc2cc(NC3CCN(Cc4ccccc4)CC3)ccc21 [Example 176, 1-{5-[(1-Benzyl-4-piperidyl)amino]-1H-5-indazolyl}-1-ethanone]",4
7,"CCCNC(=O)Nc1ccc2c(c1)C(=O)NC2=O [Example 74, N-(1,3-Dioxo-2,3-dihydro-1H-5-isoindolyl)-N′-propylurea]",8300
8,"O=C(/C=C/c1ccc(O)c(O)c1)Nc1ccc2[nH]ncc2c1 [Example 38, N1-(1H-5-Indazolyl)-(E)-3-(3,4-dihydroxyphenyl)-2-propeneamide]",107
9,"O=C(Cc1ccc([N+](=O)[O-])cc1[N+](=O)[O-])Nc1ccc2[nH]ncc2c1 [Example 39, N1-(1H-5-Indazolyl)-2-(2,4-dinitrophenyl)acetamide]",122
10,"O=[N+]([O-])c1ccc(CN2CCC(Nc3ccc4[nH]ncc4c3)CC2)cc1 [Example 141, N-(1H-5-Indazolyl)-N-[1-(4-nitrobenzyl)-4-piperidyl]amine]",661
11,"O=C(Nc1ccncc1)Nc1c[nH]c2ccccc12 [Example 66, N-(1H-3-Indolyl)-N′-(4-pyridyl)urea]",6570
12,"Clc1ccccc1CN1CCC(Nc2ccc3[nH]ncc3c2)CC1 [Example 134, N-[1-(2-Chlorobenzyl)-4-piperidyl]-N-(1H-5-indazolyl)amine]",436
13,"O=C(CNCc1ccccc1)Nc1ccc2[nH]ncc2c1 [Example 173, N1-(1H-5-Indazolyl)-2-(benzylamino)acetamide]",446
14,"O=C(CSc1c(Cl)cccc1Cl)Nc1ccncc1 [Example 17, N1-(4-Pyridyl)-2-[(2,6-dichlorophenyl)-sulfanyl]acetamide]",9600
15,"O=C(Cc1ccc2c(c1)OCO2)Nc1ccc2[nH]ncc2c1 [Example 45, N1-(1H-5-Indazolyl)-2-(1,3-benzodioxol-5-yl)acetamide]",153
16,"O=C(NCc1c(F)cccc1C(F)(F)F)Nc1ccc2[nH]ncc2c1 [Example 96, N-[2-fluoro-6-(trifluoromethyl)benzyl]-N′-(1H-5-indazolyl)urea]",230
17,"O=C(NCc1c(F)cccc1C(F)(F)F)Nc1ccc2c(c1)C(=O)NC2=O [Example 91, N-(1,3-Dioxo-2,3-dihydro-1H-5-isoindolyl)-N′-[2-fluoro-6-(trifluoromethyl)benzyl]urea]",99
18,"Cc1ccc(CN2CCCC(Nc3ccc4[nH]ncc4c3)C2)cc1 (stereo not shown) [Example 167, N-(1H-5-Indazolyl)-N-[1-(4-methylbenzyl)-3-piperidyl]amine]",9
19,"c1ccc2cc(CN3CCC(Nc4ccc5[nH]ncc5c4)CC3)ccc2c1 [Example 116, N-(1H-5-Indazolyl)-N-[1-(2-naphthylmethyl)-4-piperidyl]amine]",136
20,"O=C(Nc1cccc([N+](=O)[O-])c1)Nc1ccc2c(c1)C(=O)NC2=O [Example 78, N-(1,3-Dioxo-2,3-dihydro-1H-5-isoindolyl)-N′-(3-nitrophenyl)urea]",10400
